Test results published in patent US20050048579A1, “Tertiary structures of ICAM-1/LFA-1 modulators” (priority 2003, published 2005).
Bridge positions count the residues as written; N and C are the ends. Peptide text beside a SMILES is read from it.

Legend:
[1] = system: ischemia-reperfusion injury; details: in vivo; cited from earlier work
[2] = target: ICAM-1/LFA-1 dependent cell aggregation (Homo sapiens, UniProt P05362); details: literature reports; cited from earlier work
[3] = target: T1, LFA-1 binding to ICAM-1 (JY cells) (Homo sapiens, UniProt P05362); experiment: LFA-1:ICAM-1 dependent cell aggregation assay, slightly modified (360 minute incubations); type: cell-based
T1 construct: endogenous in cells; host or cells: JY cells
Method: (§1) JY cells were maintained in RPMI-1640 medium supplemented with 10% fetal bovine serum at 37° C. in an atmosphere containing 5% CO2 in air. The aggregation of JY cells, which is dependent on LFA-1 binding to ICAM-1, was determined as previously reported (Shannon, J. P., Silva, M. V., Brown, D. C. & Larson, R. S. (2001) Novel cyclic peptide inhibits intercellular adhesion molecule-1-mediated cell aggregation. J. Pept. Res. 58, 140-150; Larson, R. S., Brown, D. C. & Sklar, L. A.(1997) Retinoic acid induces aggregation of the acute promyelocytic leukemia cell lineNB-4 by utilization of LFA-1 and ICAM-2.Blood 90, 2747-2756; Rothlein, R. & Springer, T. A. (1986) The requirement for lymphocyte function associated antigen 1 in homotypic leukocyte adhesion stimulated by phorbol ester. J. Exp.Med. 163, 1132-1149). Briefly, JY cells were washed twice with serum-free media and resuspended at a concentration of 4×10^5 cells/mL. Cells were then preincubated with various concentrations of peptides or mAb for 15 minutes at room temperature. A 50 μL aliquot of cells was seeded in each well of a 96-well flat-bottomed microtiterplate followed by the addition of either peptide or mAb to a final volume of 100 μL. Cells were allowed to aggregate at 37° C. in humidified air containing 5% CO2. Within each well, the number of aggregates and the total number of free (single) cells were counted by inverted phase microscopy. Percent aggregation, P, was then determined as follows: P=100(1−Ff/Fi), where Ff (Fi) is the final (initial) number of free cells. Percent aggregation was then used to calculate percent inhibition, I, as follows: […], where Pi (Pc) is the percent aggregation with modulatory peptide (control). The constants for 50% inhibition (IC50) were derived from a linear fit to the percent inhibition at four concentrations (50 μm, 100 μm, 500 μm, and 1 mm) of inhibitory peptide. Each experiment was performed at least three times, with each condition performed in duplicate. The data are reported as the mean values and the SDs of each IC50.
The same general procedure was used as described in Example 1.
The functional activity of each IP02 derivative was measured in a slightly-modified version of the previously described cell aggregation assay (Shannon, J. P., Silva, M. V., Brown, D. C., & Larson, R. S. (2001). Novel cyclic peptide inhibits intercellular adhesion molecule-1-mediated cell aggregation. J. Pept. Res. 58, 140-150; Merchant, S. H., Gurule, D. M., Larson, R. S. (2003). Amelioration of ischemia-reperfusion injury with cyclic peptide blockade of ICAM-1. Am. J. Physiol. Heart Circ. 284,H1260-1268; Larson, R. S., Brown, D. C., and Sklar, L. A. (1997). Retinoic acid induces aggregation of the acute promyelocytic leukemia cell line NB-4 by utilization of LFA-1 and ICAM-2. Blood 90, 2747-2756; Rothlein, R. and Springer, T. A. (1986). The requirement for lymphocyte function-associated antigen 1 in homotypic leukocyte adhesion stimulated by phorbol ester. J. Exp. Med. 163, 1132-1149). Longer incubations (360 minutes) were used here instead of the earlier 120 minute incubations in order to increase the observed differences among peptide antagonists. Of all the amino acid substitutions, replacement of R6 with K, to produce IP02-K6, improved the IC50 the most. […] Alternatively, replacement of L2 or L3 with V (IP02-V2 and IP02-V3) or A8 with L (IP02-L8) abrogated activity, with IC50s exceeding 1,000 μM.

[4] = Solubility of the peptide; type: physicochemical; details: NS, not soluble; precluded testing; listed as R4 to A mutation
Method: (§2) Cysteine-constrained peptides, synthesized by Biopeptide (San Diego, Calif., USA), were isolated using high-performance liquid chromatography, and their correct mass was confirmed by mass spectrometry. The peptides were dissolved in 5% dimethylsulfoxide in phosphate-buffered saline (PBS) at concentrations of 10 mm and stored at −80° C. until use. The mAb directed against LFA-1 (TS1/18) was purified from a hybridoma line ([…], Manassas, Va.) as described previously (Oj, V. T. & Herzenberg, T. (1980) Immunoglobulin-producing hybrid celllines. In Selected Methods in Cellular Immunology (Mishell, B. B. & Shiigi, S. M.,eds), H. H. Freeman, New York; Larson, R. S., Brown, D. C. & Sklar, L. A.(1997) Retinoic acid induces aggregation of the acute promyelocytic leukemia cell lineNB-4 by utilization of LFA-1 and ICAM-2.Blood 90, 2747-2756; Rothlein, R. & Springer, T. A. (1986) The requirement for lymphocyte function associated antigen 1 in homotypic leukocyte adhesion stimulated by phorbol ester. J. Exp.Med. 163, 1132-1149).

[5] = target: T1, LFA-1 binding to ICAM-1 (JY cells); experiment: LFA-1:ICAM-1 dependent JY cell aggregation assay (2 hours); type: cell-based
Method: as §2, §1

T1 sequence (P05362 28-532): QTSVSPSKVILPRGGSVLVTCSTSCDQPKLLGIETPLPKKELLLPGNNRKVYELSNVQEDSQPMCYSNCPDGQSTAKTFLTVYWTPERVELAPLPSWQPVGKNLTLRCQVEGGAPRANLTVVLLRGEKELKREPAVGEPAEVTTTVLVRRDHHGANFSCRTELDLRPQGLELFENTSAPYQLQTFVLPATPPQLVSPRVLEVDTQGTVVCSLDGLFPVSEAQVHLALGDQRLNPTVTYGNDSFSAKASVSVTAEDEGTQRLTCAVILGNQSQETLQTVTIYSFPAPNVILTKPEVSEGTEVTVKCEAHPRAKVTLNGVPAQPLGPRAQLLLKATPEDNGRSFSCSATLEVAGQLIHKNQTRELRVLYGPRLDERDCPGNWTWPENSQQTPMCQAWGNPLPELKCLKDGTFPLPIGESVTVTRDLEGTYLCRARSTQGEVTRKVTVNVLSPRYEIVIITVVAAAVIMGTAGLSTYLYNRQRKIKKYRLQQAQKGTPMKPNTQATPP
Sequence of ICAM-1/LFA-1 dependent cell aggregation (P05362 28-532): as above

| SMILES | inhibition of ICAM-1/LFA-1 dependent cell aggregation (in words) [2] | IC50 [5] [µM] | other results |
| --- | --- | --- | --- |
| CSCC[C@@H]1NC(=O)[C@H](CCCNC(=N)N)NC(=O)[C@H](CC(C)C)NC(=O)[C@H](CC(C)C)NC(=O)[C@@H](N)CSSC[C@@H](C(=O)O)NC(=O)[C@H](C)NC(=O)[C@H](CO)NC(=O)[C@H](CCCCN)NC1=O [IP02-K6, CLLRMKSAC] (H-CLLRMKSAC-OH; disulfide 1-9; N-terminus and C-terminus assumed) | more potent inhibitor of ICAM-1 than IP01 |  | inhibition of ischemia-reperfusion injury (in words) [1]: potent in vivo inhibitor; IC50 fold smaller than lead peptide IP01 [3]: ~6 fold |
| CC[C@H](C)[C@@H]1NC(=O)[C@H](CO)NC(=O)[C@H](CCCNC(=N)N)NC(=O)[C@H](CCSC)NC(=O)[C@H](C)NC(=O)[C@H](CC(C)C)NC(=O)[C@H](CC(C)C)NC(=O)[C@@H](N)CSSC[C@@H](C(=O)O)NC1=O [IP01-A4, CLLAMRSIC] (H-CLLAMRSIC-OH; disulfide 1-9; N-terminus and C-terminus assumed) |  |  | solubility of the peptide [4]: insoluble |
| CSCC[C@@H]1NC(=O)[C@H](CCCNC(=N)N)NC(=O)[C@H](CC(C)C)NC(=O)[C@H](CC(C)C)NC(=O)[C@@H](N)CSSC[C@@H](C(=O)O)NC(=O)[C@H](C)NC(=O)[C@H](CO)NC(=O)[C@H](CCCNC(=N)N)NC1=O [IP01-A8, CLLRMRSAC] (H-CLLRMRSAC-OH; disulfide 1-9; N-terminus and C-terminus assumed) | enhanced inhibition |  | bioactivity after alanine substitution (in words) ([5]; listed as I8 to alanine substitution): retained significant bioactivity |
| CC[C@H](C)[C@@H]1NC(=O)[C@H](CO)NC(=O)[C@H](CCCNC(=N)N)NC(=O)[C@H](CCSC)NC(=O)[C@H](CCCNC(=N)N)NC(=O)[C@H](CC(C)C)NC(=O)[C@H](C)NC(=O)[C@@H](N)CSSC[C@@H](C(=O)O)NC1=O [IP01-A2, CALRMRSIC] (H-CALRMRSIC-OH; disulfide 1-9; N-terminus and C-terminus assumed) |  | > 1000 |  |
| CC[C@H](C)[C@@H]1NC(=O)[C@H](CO)NC(=O)[C@H](CCCNC(=N)N)NC(=O)[C@H](CCSC)NC(=O)[C@H](CCCNC(=N)N)NC(=O)[C@H](C)NC(=O)[C@H](CC(C)C)NC(=O)[C@@H](N)CSSC[C@@H](C(=O)O)NC1=O [IP01-A3, CLARMRSIC] (H-CLARMRSIC-OH; disulfide 1-9; N-terminus and C-terminus assumed) |  | > 1000 |  |
| CC[C@H](C)[C@@H]1NC(=O)[C@H](CO)NC(=O)[C@H](CCCNC(=N)N)NC(=O)[C@H](CCSC)NC(=O)[C@H](CCCNC(=N)N)NC(=O)[C@H](CC(C)C)NC(=O)[C@H](CC(C)C)NC(=O)[C@@H](N)CSSC[C@@H](C(=O)O)NC1=O [IP01, CLLRMRSIC] (H-CLLRMRSIC-OH; disulfide 1-9; N-terminus and C-terminus assumed) | potent in vitro inhibitor |  |  |
